# Reference: PubChem BioAssay (NCI)
#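 Tested at 5 concentrations; 48 h exposure; 96-well plates; endpoints linearly interpolated, else capped at highest concentration. The concentration for full growth arrest is given as TGI.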
# Experiments:
# Test in all cases: NCI-60 cell line screen, 48 h
# RPMI-8226 leukemia = system: RPMI-8226 leukemia
# UACC-257 melanoma = system: UACC-257 melanoma
# DU-145 prostate = system: DU-145 prostate
# KM12 colon = system: KM12 colon
# SK-OV-3 ovarian = system: SK-OV-3 ovarian
# TK-10 renal = system: TK-10 renal
# ACHN renal = system: ACHN renal
# SW-620 colon = system: SW-620 colon
# NCI-H226 lung = system: NCI-H226 lung
# HT29 colon = system: HT29 colon
# A498 renal = system: A498 renal
# 786-0 renal = system: 786-0 renal
# HL-60(TB) leukemia = system: HL-60(TB) leukemia
# SR leukemia = system: SR leukemia
# U251 CNS = system: U251 CNS
# MDA-N = system: MDA-N
# M14 melanoma = system: M14 melanoma
# OVCAR-3 ovarian = system: OVCAR-3 ovarian
# NCI/ADR-RES ovarian = system: NCI/ADR-RES ovarian
# SF-295 CNS = system: SF-295 CNS
# NCI-H23 lung = system: NCI-H23 lung
# MDA-MB-435 = system: MDA-MB-435
# A549 NSCLC = system: A549 NSCLC
# PC-3 prostate = system: PC-3 prostate
# CAKI-1 renal = system: CAKI-1 renal
# MOLT-4 leukemia = system: MOLT-4 leukemia
# SNB-75 CNS = system: SNB-75 CNS
# HOP-92 NSCLC = system: HOP-92 NSCLC
# SN12C renal = system: SN12C renal
# T-47D breast = system: T-47D breast
# COLO 205 colon = system: COLO 205 colon
# OVCAR-5 ovarian = system: OVCAR-5 ovarian
# SF-539 CNS = system: SF-539 CNS
# SK-MEL-28 melanoma = system: SK-MEL-28 melanoma
# HS 578T breast = system: HS 578T breast
# MDA-MB-231 breast = system: MDA-MB-231 breast
# HCC-2998 colon = system: HCC-2998 colon
# SNB-19 CNS = system: SNB-19 CNS
# OVCAR-4 ovarian = system: OVCAR-4 ovarian
# SF-268 CNS = system: SF-268 CNS
# HCT-15 colon = system: HCT-15 colon
# LOX IMVI melanoma = system: LOX IMVI melanoma
# OVCAR-8 ovarian = system: OVCAR-8 ovarian
# CCRF-CEM leukemia = system: CCRF-CEM leukemia
# UO-31 renal = system: UO-31 renal
# SK-MEL-5 melanoma = system: SK-MEL-5 melanoma
# EKVX NSCLC = system: EKVX NSCLC
# HCT-116 colon = system: HCT-116 colon
# UACC-62 melanoma = system: UACC-62 melanoma
# NCI-H522 lung = system: NCI-H522 lung
# RXF 393 renal = system: RXF 393 renal
# SK-MEL-2 melanoma = system: SK-MEL-2 melanoma
# IGROV1 ovarian = system: IGROV1 ovarian
# BT-549 breast = system: BT-549 breast
# MCF7 breast = system: MCF7 breast
# MALME-3M melanoma = system: MALME-3M melanoma
# HOP-62 NSCLC = system: HOP-62 NSCLC
# K-562 leukemia = system: K-562 leukemia
# NCI-H460 lung = system: NCI-H460 lung
smiles,measurement,setting,value
CCC1CC(C)C(O)/C=C/C=C/CC(C)OC(=O)CC(O)C(OC)C1OC1OC(C)CC(O)(C(C)=O)C1O (stereo not given),TGI,RPMI-8226 leukemia,> 100 µM
same,TGI,UACC-257 melanoma,> 100 µM
same,TGI,DU-145 prostate,> 100 µM
same,TGI,KM12 colon,> 100 µM
same,TGI,SK-OV-3 ovarian,> 100 µM
same,TGI,TK-10 renal,> 100 µM
same,TGI,ACHN renal,> 100 µM
same,TGI,SW-620 colon,> 100 µM
same,TGI,NCI-H226 lung,> 100 µM
same,TGI,HT29 colon,> 100 µM
same,TGI,A498 renal,> 100 µM
same,TGI,786-0 renal,> 100 µM
same,TGI,HL-60(TB) leukemia,42.4 µM
same,TGI,SR leukemia,59.8 µM
same,TGI,U251 CNS,> 100 µM
same,TGI,MDA-N,> 100 µM
same,TGI,M14 melanoma,> 100 µM
same,TGI,OVCAR-3 ovarian,> 100 µM
same,TGI,NCI/ADR-RES ovarian,> 100 µM
same,TGI,SF-295 CNS,> 100 µM
same,TGI,NCI-H23 lung,> 100 µM
same,TGI,MDA-MB-435,> 100 µM
same,TGI,A549 NSCLC,> 100 µM
same,TGI,PC-3 prostate,> 100 µM
same,TGI,CAKI-1 renal,> 100 µM
same,TGI,MOLT-4 leukemia,> 100 µM
same,TGI,SNB-75 CNS,> 100 µM
same,TGI,HOP-92 NSCLC,> 100 µM
same,TGI,SN12C renal,> 100 µM
same,TGI,T-47D breast,> 100 µM
same,TGI,COLO 205 colon,> 100 µM
same,TGI,OVCAR-5 ovarian,> 100 µM
same,TGI,SF-539 CNS,> 100 µM
same,TGI,SK-MEL-28 melanoma,> 100 µM
same,TGI,HS 578T breast,> 100 µM
same,TGI,MDA-MB-231 breast,67.9 µM
same,TGI,HCC-2998 colon,66.5 µM
same,TGI,SNB-19 CNS,79.5 µM
same,TGI,OVCAR-4 ovarian,42.8 µM
same,TGI,SF-268 CNS,> 100 µM
same,TGI,HCT-15 colon,> 100 µM
same,TGI,LOX IMVI melanoma,> 100 µM
same,TGI,OVCAR-8 ovarian,> 100 µM
same,TGI,CCRF-CEM leukemia,> 100 µM
same,TGI,UO-31 renal,> 100 µM
same,TGI,SK-MEL-5 melanoma,> 100 µM
same,TGI,EKVX NSCLC,> 100 µM
same,TGI,HCT-116 colon,> 100 µM
same,TGI,UACC-62 melanoma,> 100 µM
same,TGI,NCI-H522 lung,51.4 µM
same,TGI,RXF 393 renal,> 100 µM
same,TGI,SK-MEL-2 melanoma,> 100 µM
same,TGI,IGROV1 ovarian,> 100 µM
same,TGI,BT-549 breast,> 100 µM
same,TGI,MCF7 breast,> 100 µM
same,TGI,MALME-3M melanoma,> 100 µM
same,TGI,HOP-62 NSCLC,> 100 µM
CC(/C=N/N(C)C1=NCCCN1)=N/N(C)C1=NCCCN1,TGI,RPMI-8226 leukemia,> 100 µM
same,TGI,UACC-257 melanoma,> 100 µM
same,TGI,DU-145 prostate,> 100 µM
same,TGI,KM12 colon,> 100 µM
same,TGI,SK-OV-3 ovarian,> 100 µM
same,TGI,TK-10 renal,> 100 µM
same,TGI,ACHN renal,> 100 µM
same,TGI,SW-620 colon,> 100 µM
same,TGI,NCI-H226 lung,> 100 µM
same,TGI,HT29 colon,> 100 µM
same,TGI,A498 renal,> 100 µM
same,TGI,786-0 renal,> 100 µM
same,TGI,HL-60(TB) leukemia,> 100 µM
same,TGI,SR leukemia,> 100 µM
same,TGI,U251 CNS,> 100 µM
same,TGI,MDA-N,> 100 µM
same,TGI,OVCAR-3 ovarian,> 100 µM
same,TGI,NCI/ADR-RES ovarian,> 100 µM
same,TGI,SF-295 CNS,> 100 µM
same,TGI,NCI-H23 lung,> 100 µM
same,TGI,MDA-MB-435,> 100 µM
same,TGI,A549 NSCLC,> 100 µM
same,TGI,PC-3 prostate,> 100 µM
same,TGI,CAKI-1 renal,> 100 µM
same,TGI,MOLT-4 leukemia,> 100 µM
same,TGI,SNB-75 CNS,> 100 µM
same,TGI,HOP-92 NSCLC,> 100 µM
same,TGI,SN12C renal,> 100 µM
same,TGI,T-47D breast,> 100 µM
same,TGI,COLO 205 colon,> 100 µM
same,TGI,OVCAR-5 ovarian,> 100 µM
same,TGI,K-562 leukemia,> 100 µM
same,TGI,SF-539 CNS,> 100 µM
same,TGI,SK-MEL-28 melanoma,> 100 µM
same,TGI,HS 578T breast,> 100 µM
same,TGI,MDA-MB-231 breast,> 100 µM
same,TGI,HCC-2998 colon,> 100 µM
same,TGI,SNB-19 CNS,> 100 µM
same,TGI,OVCAR-4 ovarian,> 100 µM
same,TGI,SF-268 CNS,> 100 µM
same,TGI,HCT-15 colon,> 100 µM
same,TGI,LOX IMVI melanoma,> 100 µM
same,TGI,OVCAR-8 ovarian,> 100 µM
same,TGI,CCRF-CEM leukemia,> 100 µM
same,TGI,UO-31 renal,> 100 µM
same,TGI,SK-MEL-5 melanoma,> 100 µM
same,TGI,EKVX NSCLC,> 100 µM
same,TGI,HCT-116 colon,> 100 µM
same,TGI,UACC-62 melanoma,> 100 µM
same,TGI,NCI-H522 lung,> 100 µM
same,TGI,RXF 393 renal,> 100 µM
same,TGI,SK-MEL-2 melanoma,> 100 µM
same,TGI,IGROV1 ovarian,> 100 µM
same,TGI,BT-549 breast,> 100 µM
same,TGI,MCF7 breast,> 100 µM
same,TGI,MALME-3M melanoma,> 100 µM
same,TGI,NCI-H460 lung,> 100 µM
same,TGI,HOP-62 NSCLC,> 100 µM
